Common to all, as to format: cell-based
Data set [1] is described as follows: Cytotoxicity against mouse Mlg cells assessed as effect on cell viability up to 80 uM after 24 to 48 hrs by MTT assay.
Data set [2] concerns the target Transforming growth factor beta-1 proprotein/Mothers against decapentaplegic homolog 3 (Mus musculus, UniProt P04202+Q8BUN5). Briefly: Inhibition of TGF beta1/Smad3 signaling in mouse NIH/3T3 cells harboring CAGA promoter incubated for 18 hrs in presence of TGF-beta1 by luciferase reporter gene assay. For orientation: A reporter such as luciferase makes a cellular process visible.

Data set [3] addresses Transforming growth factor beta-1 proprotein/Mothers against decapentaplegic homolog 3 (Mus musculus) (UniProt P04202+Q8BUN5). Briefly: Inhibition of TGF beta1/Smad3 signaling in mouse NIH/3T3 cells harboring CAGA promoter at 10 uM incubated for 18 hrs in presence of TGF-beta1 by luciferase reporter gene assay relative to control.

The source of these data is ChEMBL document CHEMBL4364349, “In vitro screening for compounds from Hypericum longistylum with anti-pulmonary fibrosis activity” (Bioorg Med Chem Lett, 2019).

As a reminder, the IC50 is the concentration that gives 50% inhibition. In general, inhibition refers to how much of the control response was suppressed.

Structures are written as SMILES.

Sequence of Transforming growth factor beta-1 proprotein/Mothers against decapentaplegic homolog 3 (P04202 279-390 limits assumed): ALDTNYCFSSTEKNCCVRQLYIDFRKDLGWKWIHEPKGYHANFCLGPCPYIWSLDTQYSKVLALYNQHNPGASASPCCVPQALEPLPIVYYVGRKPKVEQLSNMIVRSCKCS
Sequence of Transforming growth factor beta-1 proprotein/Mothers against decapentaplegic homolog 3 (Q8BUN5 2-425 limits assumed): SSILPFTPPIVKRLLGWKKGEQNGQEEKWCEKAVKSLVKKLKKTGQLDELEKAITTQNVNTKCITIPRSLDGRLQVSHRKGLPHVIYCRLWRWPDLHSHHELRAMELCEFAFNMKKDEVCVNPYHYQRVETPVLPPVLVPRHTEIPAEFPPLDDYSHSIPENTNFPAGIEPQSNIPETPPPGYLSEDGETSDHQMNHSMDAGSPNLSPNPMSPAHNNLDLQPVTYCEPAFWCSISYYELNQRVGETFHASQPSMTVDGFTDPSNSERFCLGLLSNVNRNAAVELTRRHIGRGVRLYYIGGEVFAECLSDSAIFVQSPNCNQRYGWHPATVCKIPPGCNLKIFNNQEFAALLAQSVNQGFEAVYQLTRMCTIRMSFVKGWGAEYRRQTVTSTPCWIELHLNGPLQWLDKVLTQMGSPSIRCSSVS
Sequence of Transforming growth factor beta-1 proprotein/Mothers against decapentaplegic homolog 3 (Mus musculus) (P04202 279-390 limits assumed): as the sequence (P04202 279-390 limits assumed) above
Sequence of Transforming growth factor beta-1 proprotein/Mothers against decapentaplegic homolog 3 (Mus musculus) (Q8BUN5 2-425 partner limits assumed): as the sequence (Q8BUN5 2-425 limits assumed) above

`CC(C)[C@@H]1CC[C@@]2(C)[C@H](O)CCC(CO)=C[C@@H]12`: in data set [1], the Activity result was “Non-Toxic”.
As to `Cc1cccc(-c2[nH]c(C(C)(C)C)nc2-c2ccc3nccnc3c2)n1`, the IC50 in data set [2] was 70.5 nM. The Activity entry in data set [1] is “Toxic”.
Consider `CO[C@@]12CC[C@@H](O)[C@@](C)(CC[C@@H]3[C@@H]1CC3(C)C)C2`, for which the Activity entry in data set [1] is “Non-Toxic”.
On the same count and under the same terms, as for `C=C1CC[C@@H](O)[C@]2(C)CC[C@@H](C(C)C)[C@H](O)[C@@H]12`, the entry is “Non-Toxic”; as for `CC(C)[C@@H]1CC[C@@]2(C)C(=O)CCC(C=O)=C[C@@H]12`, “Non-Toxic”.
As for `COc1ccc(C2CC(=O)c3c(O)cc(O)c(C)c3O2)cc1` (stereo not given), in data set [2], the half-maximal inhibitory concentration (IC50) was determined as 380 nM. For the same compound, the Activity entry in data set [1] is recorded as “Non-Toxic”. Also, the inhibition in data set [3] was determined as 93.1%.
Turning to `CC(C)[C@H]1CC[C@@]2(C)[C@@H]1[C@@H]1O[C@]1(CO)CC[C@@H]2O` [SANICULAMOID B], in data set [1], the Activity result was “Non-Toxic”.
On to `C=C1CCC(=O)[C@]2(C)CC[C@@H](C(C)C)[C@@H]2C1O` (stereo not given in full), for which the Activity entry in data set [1] is on record as “Non-Toxic”.
Consider `Cc1ccc(=O)n(-c2ccccc2)c1` [PIRFENIDONE], for which, in data set [2], the IC50 was determined as 1430 nM.
For `CC(C)[C@@H]1CC[C@@]2(C)[C@H](O)CCC(C=O)=C[C@H]12`, the Activity entry in data set [1] is “Non-Toxic”.
Consider `CC(=O)[C@@H]1CC[C@H]2[C@H]1[C@@H](C(C)C)CC[C@]2(C)O`, for which, in data set [1], the Activity entry was “Non-Toxic”.
Same read-out and setting: as for `C=C1CC[C@@H](O)[C@]2(C)CC[C@H](C(C)C)[C@@H](O)[C@H]12`, the entry is “Non-Toxic”; as for `CC(C)[C@@H]1CC[C@@]2(C)[C@H](O)CC[C@@]3(O)CO[C@@H]1[C@@H]32`, “Non-Toxic”; as for `C=C[C@](C)(O)CC[C@H]1C(=C)C[C@H](O)[C@H]2C(C)(C)CCC[C@]12C`, “Non-Toxic”.
On to `CC1(C)C[C@H]2[C@H]1CC[C@@]1(C)C[C@]2(O)CC[C@@H]1O`, for which the IC50 in data set [2] turned out to be 3670 nM. Moreover, in data set [1], the Activity entry is given as “Non-Toxic”. Also, the inhibition in data set [3] was determined as 67.9%.
